In patent US11117915B2, “Antibacterial aminoglycoside analogs” (Cipla USA, Inc., priority 2007, dated 2021):
≈ marks a conversion by molar mass, not a printed value.

How the values were obtained:
E. coli ATCC 25922 = assay: MIC assay, CLSI broth microdilution, E. coli ATCC 25922 (AECO001); format: cell-based; conditions: Escherichia coli, ATCC25922, 20 h, read-out: MIC AECO001
Outline: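 Bacteria from overnight agar colonies, suspended in saline, added to serial two-fold dilutions in Mueller Hinton Broth at 5×10^5 CFU/mL final. Incubation 35° C., 20 hours, ambient air, per CLSI M7-A7 reference method.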

P. aeruginosa ATCC 27853 = assay: MIC assay, CLSI broth microdilution, P. aeruginosa ATCC 27853 (APAE001); format: cell-based; conditions: Pseudomonas aeruginosa, ATCC27853, 20 h, read-out: MIC APAE001
Outline: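 Broth microdilution per CLSI M7-A7, with serial two-fold compound dilutions in Mueller Hinton Broth mixed 1:1 with inoculum. Colonies from a previous-day agar plate were suspended in saline to a final 5×10^5 CFU/mL. Plates were incubated 20 hours at 35° C. in ambient air.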

Row | SMILES | MIC (E. coli ATCC 25922) | MIC (P. aeruginosa ATCC 27853)
1 | CN[C@@H]1[C@@H](O)[C@@H](O[C@@H]2[C@@H](O)[C@H](O[C@H]3OC(CNCC4(CN)CC4)=CC[C@H]3N)[C@@H](N)C[C@H]2NC(=O)C(O)C2CNC2)OC[C@]1(C)O (stereo partly drawn) [Example 74, 6′-(Methyl-1-aminomethyl-cyclopropyl)-1-(2-(azetidin-3-yl)-2-hydroxy-acetyl)-sisomicin] | 1 to 16 µg/mL (≈ 1.55 to 24.9 µM) | > 16 µg/mL
2 | CN[C@@H]1[C@@H](O)[C@@H](O[C@@H]2[C@@H](O)[C@H](O[C@H]3OC(CNCCO)=CC[C@H]3N)[C@@H](N)C[C@H]2NC(=O)C(O)C2CNC2)OC[C@]1(C)O (stereo partly drawn) [Example 75, 6′-(2-Hydroxy-ethyl)-1-(2-(azetidin-3-yl)-2-hydroxy-acetyl)-sisomicin] | 1 to 16 µg/mL (≈ 1.65 to 26.5 µM) | > 16 µg/mL
3 | CN[C@@H]1[C@@H](O)[C@@H](O[C@@H]2[C@@H](O)[C@H](O[C@H]3OC(CNCCCN)=CC[C@H]3N)[C@@H](N)C[C@H]2NC(=O)C(O)C2CNC2)OC[C@]1(C)O (stereo partly drawn) [Example 76, 6′-(3-Amino-propyl)-1-(2-(azetidin-3-yl)-2-hydroxy-acetyl)-sisomicin] | 1 to 16 µg/mL (≈ 1.62 to 25.9 µM) | 1 to 16 µg/mL (≈ 1.62 to 25.9 µM)
4 | CN[C@@H]1[C@@H](O)[C@@H](O[C@@H]2[C@@H](O)[C@H](O[C@H]3OC(CNCC(O)CCN)=CC[C@H]3N)[C@@H](N)C[C@H]2NC(=O)C(O)C2CNC2)OC[C@]1(C)O (stereo partly drawn) [Example 77, 6′-(2-Hydroxy-4-amino-butyl)-1-(2-(azetidin-3-yl)-2-hydroxy-acetyl)-sisomicin] | 1 to 16 µg/mL (≈ 1.54 to 24.7 µM) | 1 to 16 µg/mL (≈ 1.54 to 24.7 µM)
5 | CN[C@@H]1[C@@H](O)[C@@H](O[C@@H]2[C@@H](O)[C@H](O[C@H]3OC(CNC[C@H]4C[C@H](N)C4)=CC[C@H]3N)[C@@H](N)C[C@H]2NC(=O)C2(O)CCNC2)OC[C@]1(C)O (stereo partly drawn) [Example 78, 6′-(Methyl-trans-3-amino-cyclobutyl)-1-(3-hydroxy-pyrrolidin-3-yl-acetyl)-sisomicin] | < 1 µg/mL | 1 to 16 µg/mL (≈ 1.55 to 24.9 µM)
6 | CN[C@@H]1[C@@H](O)[C@@H](O[C@@H]2[C@@H](O)[C@H](O[C@H]3OC(CNCC4(CN)CC4)=CC[C@H]3N)[C@@H](N)C[C@H]2NC(=O)C2(O)CCNC2)OC[C@]1(C)O (stereo partly drawn) [Example 79] | 1 to 16 µg/mL (≈ 1.55 to 24.9 µM) | > 16 µg/mL
7 | CN[C@@H]1[C@@H](O)[C@@H](O[C@@H]2[C@@H](O)[C@H](O[C@H]3OC(CNCCCC(O)CN)=CC[C@H]3N)[C@@H](N)C[C@H]2NC(=O)[C@@H](O)CN)OC[C@]1(C)O (stereo partly drawn) [Example 80, 6′-(4-Hydroxy-5-amino-pentyl)-1-(3-amino-2(S)-hydroxy-propionyl)-sisomicin] | < 1 µg/mL | < 1 µg/mL
8 | CN[C@@H]1[C@@H](O)[C@@H](O[C@@H]2[C@@H](O)[C@H](O[C@H]3OC(CNCCNC4CNC4)=CC[C@H]3N)[C@@H](N)C[C@H]2NC(=O)[C@@H](O)CN)OC[C@]1(C)O [Example 81, 6′-(N-(Azetidin-3-yl)-2-amino-ethyl)-1-(3-amino-2(S)-hydroxy-propionyl)-sisomicin] | 1 to 16 µg/mL (≈ 1.58 to 25.3 µM) | > 16 µg/mL
9 | CN[C@@H]1[C@@H](O)[C@@H](O[C@@H]2[C@@H](O)[C@H](O[C@H]3OC(CNCC(O)CN)=CC[C@H]3N)[C@@H](N)C[C@H]2NC(=O)C(O)C2CNC2)OC[C@]1(C)O (stereo partly drawn) [Example 82, 6′-(2-Hydroxy-3-amino-propyl)-1-(2-(azetidin-3-yl)-2-hydroxy-acetyl)-sisomicin] | 1 to 16 µg/mL (≈ 1.58 to 25.2 µM) | > 16 µg/mL
10 | CN[C@@H]1[C@@H](O)[C@@H](O[C@@H]2[C@@H](O)[C@H](O[C@H]3OC(CNCC4(O)CC(N)C4)=CC[C@H]3N)[C@@H](N)C[C@H]2NC(=O)C(O)C2CNC2)OC[C@]1(C)O (stereo partly drawn) [Example 83, 6′-(Methyl-3-amino-1-hydroxy-cyclobutyl)-1-(2-(azetidin-3-yl)-2-hydroxy-acetyl)-sisomicin] | 1 to 16 µg/mL (≈ 1.52 to 24.3 µM) | > 16 µg/mL
11 | CN[C@@H]1[C@@H](O)[C@@H](O[C@@H]2[C@@H](O)[C@H](O[C@H]3OC(CN)=CC[C@H]3NCC3CCNC3)[C@@H](N)C[C@H]2NC(=O)[C@@H](O)CCN)OC[C@]1(C)O (stereo partly drawn) [Example 84, 2′-(Methyl-pyrrolidin-3-yl)-1-(4-amino-2(S)-hydroxy-butyryl)-sisomicin] | < 1 µg/mL | 1 to 16 µg/mL (≈ 1.58 to 25.3 µM)
12 | CN[C@@H]1[C@@H](O)[C@@H](O[C@@H]2[C@@H](O)[C@H](O[C@H]3OC(CN)=CC[C@H]3NCC3CCCN3)[C@@H](N)C[C@H]2NC(=O)[C@@H](O)CCN)OC[C@]1(C)O (stereo partly drawn) [Example 85, 2′-(Methyl-pyrrolidin-2-yl)-1-(4-amino-2(S)-hydroxy-butyryl)-sisomicin] | < 1 µg/mL | 1 to 16 µg/mL (≈ 1.58 to 25.3 µM)
13 | CNCC(=O)N[C@@H]1CC=C(CN)O[C@@H]1O[C@H]1[C@H](O)[C@@H](O[C@H]2OC[C@](C)(O)[C@H](NC)[C@H]2O)[C@H](NC(=O)[C@@H](O)CCN)C[C@@H]1N [Example 86, 2′-(N-Methyl-amino-acetyl)-1-(4-amino-2(S)-hydroxy-butyryl)-sisomicin] | 1 to 16 µg/mL (≈ 1.61 to 25.8 µM) | 1 to 16 µg/mL (≈ 1.61 to 25.8 µM)
14 | CN[C@@H]1[C@@H](O)[C@@H](O[C@@H]2[C@@H](O)[C@H](O[C@H]3OC(CN)=CC[C@H]3NC(=O)CN)[C@@H](N)C[C@H]2NC(=O)[C@@H](O)CCN)OC[C@]1(C)O [Example 87, 2′-(2-Amino-acetyl)-1-(4-amino-2(S)-hydroxy-butyryl)-sisomicin] | 1 to 16 µg/mL (≈ 1.65 to 26.4 µM) | 1 to 16 µg/mL (≈ 1.65 to 26.4 µM)
15 | CN[C@@H]1[C@@H](O)[C@@H](O[C@@H]2[C@@H](O)[C@H](O[C@H]3OC(CN)=CC[C@H]3NC(=O)C(C)N)[C@@H](N)C[C@H]2NC(=O)[C@@H](O)CCN)OC[C@]1(C)O (stereo partly drawn) [Example 88, 2′-(2-Amino-propionyl)-1-(4-amino-2(S)-hydroxy-butyryl)-sisomicin] | 1 to 16 µg/mL (≈ 1.61 to 25.8 µM) | 1 to 16 µg/mL (≈ 1.61 to 25.8 µM)
16 | CN[C@@H]1[C@@H](O)[C@@H](O[C@@H]2[C@@H](O)[C@H](O[C@H]3OC(CN)=CC[C@H]3NC(=O)C(O)CN)[C@@H](N)C[C@H]2NC(=O)[C@@H](O)CCN)OC[C@]1(C)O (stereo partly drawn) [Example 89, 2′-(3-Amino-2-hydroxy-propionyl)-1-(4-amino-2(S)-hydroxy-butyryl)-sisomicin] | < 1 µg/mL | 1 to 16 µg/mL (≈ 1.57 to 25.2 µM)
17 | CN[C@@H]1[C@@H](O)[C@@H](O[C@@H]2[C@@H](O)[C@H](O[C@H]3OC(CN)=CC[C@H]3NC(=O)C3CCCN3)[C@@H](N)C[C@H]2NC(=O)[C@@H](O)CCN)OC[C@]1(C)O (stereo partly drawn) [Example 90] | < 1 µg/mL | 1 to 16 µg/mL (≈ 1.55 to 24.8 µM)
18 | CN[C@@H]1[C@@H](O)[C@@H](O[C@@H]2[C@@H](O)[C@H](O[C@H]3OC(CN)=CC[C@H]3NCCCN)[C@@H](N)C[C@H]2NC(=O)[C@@H](O)CCN)OC[C@]1(C)O [Example 91, 2′-(3-Amino-propyl)-1-(4-amino-2(S)-hydroxy-butyryl)-sisomicin] | < 1 µg/mL | < 1 µg/mL
19 | CN[C@@H]1[C@@H](O)[C@@H](O[C@@H]2[C@@H](O)[C@H](O[C@H]3OC(CN)=CC[C@H]3NC(=O)CC3CNCCO3)[C@@H](N)C[C@H]2NC(=O)[C@@H](O)CCN)OC[C@]1(C)O (stereo partly drawn) [Example 92, 2′-(Morpholin-2-yl-acetyl)-1-(4-amino-2(S)-hydroxy-butyryl)-sisomicin] | < 1 µg/mL | > 16 µg/mL
20 | CN[C@@H]1[C@@H](O)[C@@H](O[C@@H]2[C@@H](O)[C@H](O[C@H]3OC(CN)=CC[C@H]3NS(=O)(=O)CCN)[C@@H](N)C[C@H]2NC(=O)[C@@H](O)CCN)OC[C@]1(C)O [Example 93, 2′-(2-Amino-ethyl-sulfonamide)-1-(4-amino-2(S)-hydroxy-butyryl)-sisomicin] | < 1 µg/mL | 1 to 16 µg/mL (≈ 1.52 to 24.4 µM)
21 | CN[C@@H]1[C@@H](O)[C@@H](O[C@@H]2[C@@H](O)[C@H](O[C@H]3OC(CN)=CC[C@H]3NCC(C)(C)CN(C)C)[C@@H](N)C[C@H]2NC(=O)[C@@H](O)CCN)OC[C@]1(C)O [Example 94, 2′-(N, N-Dimethyl-2,2-dimethyl-3-amino-propyl)-1-(4-amino-2(S)-hydroxy-butyryl)-sisomicin] | 1 to 16 µg/mL (≈ 1.51 to 24.2 µM) | > 16 µg/mL
22 | CN[C@@H]1[C@@H](O)[C@@H](O[C@@H]2[C@@H](O)[C@H](O[C@H]3OC(CN)=CC[C@H]3NC[C@H](C)N)[C@@H](N)C[C@H]2NC(=O)[C@@H](O)CCN)OC[C@]1(C)O [Example 95, 2′-(2(S)-Amino-propyl)-1-(4-amino-2(S)-hydroxy-butyryl)-sisomicin] | < 1 µg/mL | > 16 µg/mL
23 | CN[C@@H]1[C@@H](O)[C@@H](O[C@@H]2[C@@H](O)[C@H](O[C@H]3OC(CN)=CC[C@H]3NCC(N)CO)[C@@H](N)C[C@H]2NC(=O)[C@@H](O)CCN)OC[C@]1(C)O (stereo partly drawn) [Example 97, 2′-(2-Amino-propanol)-1-(4-amino-2(S)-hydroxy-butyryl)-sisomicin] | < 1 µg/mL | 1 to 16 µg/mL (≈ 1.61 to 25.7 µM)
24 | CN[C@@H]1[C@@H](O)[C@@H](O[C@@H]2[C@@H](O)[C@H](O[C@H]3OC(CN)=CC[C@H]3NCCO)[C@@H](N)C[C@H]2NC(=O)[C@@H](O)CCN)OC[C@]1(C)O [Example 98, 2′-(2-Hydroxy-ethyl)-1-(4-amino-2(S)-hydroxy-butyryl)-sisomicin] | 1 to 16 µg/mL (≈ 1.69 to 27 µM) | 1 to 16 µg/mL (≈ 1.69 to 27 µM)
25 | CN[C@@H]1[C@@H](O)[C@@H](O[C@@H]2[C@@H](O)[C@H](O[C@H]3OC(CN)=CC[C@H]3NC(=O)C(N)CCCN)[C@@H](N)C[C@H]2NC(=O)[C@@H](O)CCN)OC[C@]1(C)O (stereo partly drawn) [Example 99, 2′-(2,5-Diamino-pentoyl)-1-(4-amino-2(S)-hydroxy-butyryl)-sisomicin] | 1 to 16 µg/mL (≈ 1.51 to 24.1 µM) | 1 to 16 µg/mL (≈ 1.51 to 24.1 µM)
26 | CN[C@@H]1[C@@H](O)[C@@H](O[C@@H]2[C@@H](O)[C@H](O[C@H]3OC(CN)=CC[C@H]3NCC(O)CO)[C@@H](N)C[C@H]2NC(=O)[C@@H](O)CCN)OC[C@]1(C)O (stereo partly drawn) [Example 100, 2′-(2-Hydroxy-propanol)-1-(4-amino-2(S)-hydroxy-butyryl)-sisomicin] | 1 to 16 µg/mL (≈ 1.61 to 25.7 µM) | > 16 µg/mL
27 | CN[C@@H]1[C@@H](O)[C@@H](O[C@@H]2[C@@H](O)[C@H](O[C@H]3OC(CN)=CC[C@H]3NCC(O)CN)[C@@H](N)C[C@H]2NC(=O)[C@@H](O)CCN)OC[C@]1(C)O (stereo partly drawn) [Example 101, 2′-(2-Hydroxy-3-amino-propyl)-1-(4-amino-2(S)-hydroxy-butyryl)-sisomicin] | < 1 µg/mL | 1 to 16 µg/mL (≈ 1.61 to 25.7 µM)
